Assay results reported in article PMC7277860, “Viridistratins A−C, Antimicrobial and Cytotoxic Benzo[j]fluoranthenes from Stromata of Annulohypoxylon viridistratum (Hypoxylaceae, Ascomycota)” (Biomolecules, 2020).
Values after ≈ are worked out from the molar mass of the structure shown.

Key:
Assay in all cases: MIC serial dilution assay
Type in all cases: cell-based
[1] = tested on: Schizosaccharomyces pombe; details: Schizosaccharomyces pombe DSM70572; overnight, 30 °C; reference nystatin 1 mg/mL
Procedure: (§1) Compounds 1, 2, 4 and 5 were dissolved in MeOH (1 mg/mL) for the antimicrobial activity assay, while compound 3 was dissolved in MeOH: DMSO 9+1 (1 mg/mL). The solvents were also used as negative controls.
(§2) Minimum inhibitory concentrations (MIC) were determined in a serial dilution assay, as described previously; a detailed protocol can be found in the Supporting Information. The compounds (1 mg/mL) were diluted to a range of 66.7 to 0.52 µg/mL and incubated with the test organisms overnight. Inhibition of growth was visually evaluated the next day: the MIC is defined as the lowest concentration of the test compound where no growth of the test organism was observed. Various test organisms of fungal and bacterial origin were tested to cover a broad range of microorganisms. This selection is also being used as a standard test panel in our attempts to discover new anti-infectives, as it represents a broad spectrum of pathogens of clinical interest, as well as sensitive indicator strains (bacteria: Bacillus subtilis, Staphylococcus aureus, Micrococcus luteus, Chromobacterium violaceum, Escherichia coli and Pseudomonas aeruginosa; mycobacteria: Mycolicibacterium smegmatis and fungi: Candida albicans, Schizosaccharomyces pombe, Mucor hiemalis, Pichia anomala and Rhodotorula glutinis).
(§3) Protocol: Antimicrobial Activi ty Assay
(§4) The assay was conducted as a minimum inhi bitory concentration (MIC) assay in 96-well ro und-bottom mi crotiter pl ate s usi ng the p ar ameter s su mm ari zed i n T a bl e S 1 and as already described i n [S1].
(§5) Stocks of the test organi sms were generated by growing the organisms o ver ni ght i n 50 mL shaki ng fl asks fi ll ed wi th 25 mL of the growth medi um at 140 rpm (for media and temperatures see Table S1). If the organisms were well grown the ne xt day, which was checked by occurrence of an optical density (OD)>30 of the suspension (OD600 nm for bacteria, OD548 nm for fungi and M. smegma tis) , aliquots of these were stored i n 1.5 mL reaction tube s in a freezer at −80 °C for up to 12 mo nths . Upon use, aliquots were unth awed and the OD of the suspension measured and adjusted by diluting with the respective growth medi um. OD600 nm w as adj usted to 0.01 and OD548 nm to 0.1.
(§6) Subse que ntly, 150 µL o f the adjusted suspensions were added to all wells of a 96-wel l microtiter pl ate (one test organi sm per plate). In row A, additional 130 µL of suspensions plus 20 µL of the test compounds (1 mg/mL) and the controls (one compound/column) were added. MeOH as well as MeOH:DMSO 9+1 were used as negative controls, while different positive controls (refer ences) were used for the test organisms (see Tabl e S1). Then, starti ng from row A, 150 µ L of the suspension were transferred to the next row, the contents thoroughly mixed, and 150 µ L transferred to the following row.
(§7) The remaining 150 µ L after row H were discarded. […]
(§8) compounds, ranging from 66.7 µg/mL i n row A to 0.52 µg/mL i n row H.
(§9) The microtiter plates were then incubated overnight o n a microplate shaker at 800 rpm at 30 or 37 °C (see Table S1) and were visually evaluated the next day. The MIC is defined as the lowest concentration were no growth of the test organism was o bserved. A lower MIC thus corresponds to a higher antimicrobial activity of the test compound.
(§10) Table S1: MIC assay ex per i men t parameters test organism strain No. growth incubation positive control (reference) […]
Schizosaccharomyces DSM70572 MYC 3 30 nyst ati n 1.0 mg/mL […]
(§11) Rhodotorula glutinis DSM10134 MYC 3 30 nyst ati n 1.0 mg/mL
(§12) 1 MHB: Müller-Hinton Broth (SN X927.1, Ca r l Roth GmbH, Karlsruhe, Germany) 2 7H9+ADC: Middlebrook 7H9 Broth Base + Middlebrook ADC Growth Supplement (SN M0678+M0553, Merck, Darmstadt, Germany)
(§13) 3 MYC: 1 % w/v, bacto peptone, 1% w/v yeast extract, 2 % w /v glycerol, pH 6.3 [S1] Helaly, S.E.; Ashrafi, S.; Teponno, R.B.; Bernecker, S.; Dababat, A.A.; Maier, W.; Stadler, M.
(§14) Nematicidal Cyclic Lipodepsipeptides and a Xanthocillin Derivative from a Phaeosphariaceous […]

Mucor hiemalis = Mucor hiemalis DSM2656; overnight, 30 °C; reference nystatin 1 mg/mL
Procedure: as §1, §2, §3, §4, §5, §6, §7, §8, §9, §10
Mucor hiemalis DSM2656 MYC 3 30 nyst ati n 1.0 mg/mL […]
as §11, §12, §13, §14

Pichia anomala = Pichia anomala DSM6766; overnight, 30 °C; reference nystatin 1 mg/mL
Procedure: as §1, §2, §3, §4, §5, §6, §7, §8, §9, §10
Pichia anomala DSM6766 MYC 3 30 nyst ati n 1.0 mg/mL
as §11, §12, §13, §14

Rhodotorula glutinis = Rhodotorula glutinis DSM10134; overnight, 30 °C; reference nystatin 1 mg/mL
Procedure: as §1, §2, §3, §4, §5, §6, §7, §8, §9, §10, §11, §12, §13, §14

Candida albicans = Candida albicans DSM1665; overnight, 30 °C; reference nystatin 1 mg/mL
Procedure: as §1, §2, §3, §4, §5, §6, §7, §8, §9, §10
Candida albicans DSM1665 MYC 3 30 nyst ati n 1.0 mg/mL […]
as §11, §12, §13, §14

Bacillus subtilis = Bacillus subtilis DSM10; overnight, 30 °C; reference oxytetracycline 1 mg/mL; read-out: Minimum Inhibitory Concentration (MIC)
Procedure: as §1, §2, §3, §4, §5, §6, §7, §8, §9, §10
Bacillus subtilis DSM10 MHB 1 30 oxytetr acyclin 1.0 mg/mL […]
as §11, §12, §13, §14

Staphylococcus aureus = Staphylococcus aureus DSM346; overnight, 30 °C; reference oxytetracycline 0.1 mg/mL; read-out: Minimum Inhibitory Concentration (MIC)
Procedure: as §1, §2, §3, §4, §5, §6, §7, §8, §9, §10
Staphylococcus aureus DSM346 MHB 1 30 oxytetr acyclin 0.1 mg/mL […]
as §11, §12, §13, §14

[2] = tested on: Chromobacterium violaceum; details: Chromobacterium violaceum DSM30191; overnight, 30 °C; reference oxytetracycline 0.1 mg/mL; read-out: Minimum Inhibitory Concentration (MIC)
Procedure: as §1, §2, §3, §4, §5, §6, §7, §8, §9, §10
Chromobacterium DSM30191 MHB 1 30 oxytetr acyclin 0.1 mg/mL […]
as §11, §12, §13, §14

Escherichia coli = Escherichia coli DSM1116; overnight, 37 °C; reference oxytetracycline 0.1 mg/mL; read-out: Minimum Inhibitory Concentration (MIC)
Procedure: as §1, §2, §3, §4, §5, §6, §7, §8, §9, §10
Escherichia coli DSM1116 MHB 1 37 oxytetr acyclin 0.1 mg/mL […]
as §11, §12, §13, §14

Micrococcus luteus = details: Micrococcus luteus, DSM1790, Micrococcus luteus DSM1790; overnight, 30 °C; reference oxytetracycline 0.1 mg/mL; read-out: Minimum Inhibitory Concentration (MIC)
Procedure: as §1, §2, §3, §4, §5, §6, §7, §8, §9, §10
Micrococcus luteu s DSM1790 MHB 1 30 oxytetr acyclin 0.1 mg/mL […]
as §11, §12, §13, §14

MIC (Bacillus subtilis) [µg/mL] | MIC (Staphylococcus aureus) [µg/mL] | MIC [2] [µg/mL] | MIC (Escherichia coli) [µg/mL] | MIC (Micrococcus luteus) [µg/mL] | Compound | Minimum Inhibitory Concentration (MIC) [1] | Minimum Inhibitory Concentration (MIC) (Mucor hiemalis) | Minimum Inhibitory Concentration (MIC) (Pichia anomala) | Minimum Inhibitory Concentration (MIC) (Rhodotorula glutinis) | Minimum Inhibitory Concentration (MIC) (Candida albicans)
 |  |  |  |  | C[C@@H]1[C@H](O)[C@@H](C)/C=C/C=C/CC/C=C/C=C/C=C/C=C/C(O[C@H]2O[C@H](C)[C@@H](O)[C@H](N)[C@@H]2O)CC2O[C@](O)(CC(O)C(O)CCC(O)CC(O)CC(O)CC(=O)O[C@H]1C)CC(O)C2C(=O)O (stereo partly shown) [nystatin, reference compound] | 33.3 ^5 µg/mL | 66.7 ^5 µg/mL | 66.7 ^5 µg/mL | 16.7 ^5 µg/mL | 66.7 ^5 µg/mL
8.3 (≈ 18 µM) | 0.4 (≈ 0.869 µM) | 0.1 (≈ 0.217 µM) | 1.7 (≈ 3.69 µM) | 0.8 (≈ 1.74 µM) | CN(C)[C@@H]1C(O)=C(C(N)=O)C(=O)[C@@]2(O)C(O)=C3C(=O)c4c(O)cccc4[C@@](C)(O)[C@H]3[C@H](O)[C@@H]12 [oxytetracycline, reference compound] |  |  |  |  | 
